Measurements published in ChEMBL document CHEMBL5380808, “Design, Synthesis, and Biological Activity of Marinacarboline Analogues as STAT3 Pathway Inhibitors for Docetaxel-Resistant Triple-Negative Breast Cancer” (J Med Chem, 2023).
Activity calls are given as the source filed them. The rule behind the calls is not given here.

Legend:
[1] = Cytotoxicity against human MRC5 cells assessed as reduction in cell viability incubated for 72 hrs by sulforhodamine B assay; format: toxicity, cell-based
MDA-MB-231 [2] = assay: Antiproliferative activity against human MDA-MB-231 cells assessed as reduction in cell viability incubated for 72 hrs by sulforhodamine B assay; format: functional, cell-based; details: MDA-MB-231, 72 h
[3] = Selectivity index, ratio of IC50 for cytotoxicity against human MRC5 cells to IC50 for antiproliferative activity against human MDA-MB-231 cells; format: toxicity, cell-based; details: MRC5 cells and MDA-MB-231 cells, read-out: Ratio IC50
[4] = Antiproliferative activity against docetaxel-resistant human MDA-MB-231-DTR cells assessed as reduction in cell viability incubated for 72 hrs by sulforhodamine B assay; format: functional, cell-based; details: MDA-MB-231, 72 h
[5] = target: Signal transducer and activator of transcription 3 (Homo sapiens) (UniProt P40763); assay: Inhibition of STAT3 phosphorylation at Y705 residue in human MDA-MB-231 cells assessed as decrease in phosphorylated STAT3 level at 5 uM incubated for 24 hrs by Western blot analysis; format: cell-based
[6] = target: Signal transducer and activator of transcription 3 (Homo sapiens) (UniProt P40763); assay: Binding affinity to STAT3 in docetaxel-resistant human MDA-MB-231-DTR cells at 20 uM incubated for 1 hrs by streptavidin bead based pull-down assay; format: cell-based
MDA-MB-231 [7] = assay: Antitumor activity against docetaxel-resistant human MDA-MB-231-DTR cells xenografted in BALB/c mouse assessed as tumor growth inhibition at 5 mg/kg, ip daily for 12 days; format: functional, organism-based; details: time 12.0 day
[8] = Antiproliferative activity against […] cells assessed as reduction in cell viability incubated for 72 hrs by MTT assay; format: functional, cell-based
MDA-MB-231 [9] = assay: Antiproliferative activity against human MDA-MB-231 cells assessed as reduction in cell viability incubated for 72 hrs by MTT assay; format: functional, cell-based; details: MDA-MB-231, 72 h

Signal transducer and activator of transcription 3 (Homo sapiens), sequence (P40763 whole entry): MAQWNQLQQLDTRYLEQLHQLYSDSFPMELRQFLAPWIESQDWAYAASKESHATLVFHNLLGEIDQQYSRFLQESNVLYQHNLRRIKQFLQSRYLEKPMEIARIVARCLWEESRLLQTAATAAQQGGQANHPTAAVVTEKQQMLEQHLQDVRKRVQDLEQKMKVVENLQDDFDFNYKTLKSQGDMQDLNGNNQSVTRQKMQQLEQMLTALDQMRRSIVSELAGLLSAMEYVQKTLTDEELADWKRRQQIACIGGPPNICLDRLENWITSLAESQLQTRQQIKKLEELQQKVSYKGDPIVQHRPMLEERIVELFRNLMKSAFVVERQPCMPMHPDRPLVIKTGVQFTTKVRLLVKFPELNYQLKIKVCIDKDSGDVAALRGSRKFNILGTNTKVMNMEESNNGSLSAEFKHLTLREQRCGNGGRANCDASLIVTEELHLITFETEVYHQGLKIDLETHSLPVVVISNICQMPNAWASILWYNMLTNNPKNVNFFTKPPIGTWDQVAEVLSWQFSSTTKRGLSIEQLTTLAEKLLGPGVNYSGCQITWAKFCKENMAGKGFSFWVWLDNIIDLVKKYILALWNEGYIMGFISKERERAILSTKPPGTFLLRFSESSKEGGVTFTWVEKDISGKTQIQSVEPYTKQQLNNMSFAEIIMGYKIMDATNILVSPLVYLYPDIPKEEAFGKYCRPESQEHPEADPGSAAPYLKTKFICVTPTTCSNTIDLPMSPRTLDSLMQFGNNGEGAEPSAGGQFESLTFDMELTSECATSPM

Row | SMILES | IC50 (MDA-MB-231 [2]) [µM] | IC50 at 72 h [1] [µM] | selectivity ratio [3] | other results
1 | O=C(NCc1ccc(O)cc1)c1cc2c([nH]c3ccccc32)c(C(=O)c2ccc(O)cc2)n1 | > 50 | > 50 |  | 
2 | COc1ccc(NC(=O)c2cc3c([nH]c4ccccc43)c(C(C)=O)n2)cc1 | > 50 | > 50 |  | 
3 | COC(=O)c1cc2c([nH]c3ccccc32)c(C(C)=O)n1 | > 50 | > 50 |  | 
4 | O=C(NCCc1c[nH]c2ccccc12)c1cc2c([nH]c3ccccc32)c(C(=O)c2cccc(Br)c2)n1 | > 50 | > 50 |  | 
5 | CC(=O)c1nc(C(=O)NCc2ccccc2)cc2c1[nH]c1ccccc12 | > 50 | > 50 |  | 
6 | CC(=O)c1nc(C(=O)O)cc2c1[nH]c1ccccc12 | > 50 | > 50 |  | 
7 | CC(=O)c1nc(C(=O)NCCCc2c[nH]c3ccccc23)cc2c1[nH]c1ccccc12 | > 50 | > 50 |  | 
8 | CCCC(=O)c1nc(C(=O)NCCc2c[nH]c3ccccc23)cc2c1[nH]c1ccccc12 | > 50 | > 50 |  | 
9 | CC(=O)c1nc(C(=O)NCCc2ccccc2)cc2c1[nH]c1ccccc12 | > 50 | > 50 |  | 
10 | O=C(NCCc1c[nH]c2ccccc12)c1cc2c([nH]c3ccccc32)c(C(=O)c2ccccc2Br)n1 | > 50 | > 50 |  | 
11 | CCCCNC(=O)c1cc2c([nH]c3ccccc32)c(C(C)=O)n1 | > 50 | > 50 |  | 
12 | COc1ccc(CCNC(=O)c2cc3c([nH]c4ccccc43)c(C(C)=O)n2)cc1 [MARINACARBOLINE A] | > 50 | > 50 |  | 
13 | O=C(CCCC[C@@H]1SC[C@@H]2NC(=O)N[C@@H]21)NCCn1cc(COc2ccc3[nH]c4c(C(=O)c5ccc(Br)cc5)nc(C(=O)NCCc5c[nH]c6ccccc56)cc4c3c2)nn1 |  |  |  | Activity [6]: Active
14 | CC(=O)c1nc(C(=O)NCCc2ccc(O)cc2)cc2c1[nH]c1ccccc12 | > 50 | > 50 |  | 
15 | CC(=O)c1nc(C(=O)Nc2ccc(C(F)(F)F)cc2)cc2c1[nH]c1ccccc12 | > 50 | > 50 |  | 
16 | CNC(=O)c1cc2c([nH]c3ccccc32)c(C(C)=O)n1 | > 50 | > 50 |  | 
17 | CC(=O)c1nc(C(=O)Nc2ccccc2)cc2c1[nH]c1ccccc12 | > 50 | > 50 |  | 
18 | CC(=O)c1nc(C(=O)NCc2ccc(C#N)cc2)cc2c1[nH]c1ccccc12 | > 50 | > 50 |  | 
19 | CC(=O)O[C@H]1C(=O)[C@@]2(C)[C@H]([C@H](OC(=O)c3ccccc3)[C@]3(O)C[C@H](OC(=O)[C@H](O)[C@@H](NC(=O)c4ccccc4)c4ccccc4)C(C)=C1C3(C)C)[C@]1(OC(C)=O)CO[C@@H]1C[C@@H]2O [PACLITAXEL] |  |  |  | Activity (MDA-MB-231 [7]): inactive; IC50 [8]: 4.68 µM; IC50 (MDA-MB-231 [9]): 0.07 µM
20 | CC(=O)c1nc(C(=O)NCc2ccc(Cl)cc2)cc2c1[nH]c1ccccc12 | 48.3 | > 50 | > 1.04 | 
21 | CCCN(CCC)C(=O)c1cc2c([nH]c3ccccc32)c(C(C)=O)n1 | > 50 | > 50 |  | 
22 | CC(=O)c1nc(C(=O)N(C)C)cc2c1[nH]c1ccccc12 | > 50 | > 50 |  | 
23 | O=C(NCc1ccc(O)cc1)c1cc2c([nH]c3ccccc32)c(C(=O)c2ccc(Br)cc2)n1 | > 50 | > 50 |  | 

Continued by falling IC50 (MDA-MB-231 [2]), values first:

Row | IC50 (MDA-MB-231 [2]) [µM] | SMILES | IC50 at 72 h [1] [µM] | selectivity ratio [3] | other results
24 | 37.3 | CC(=O)c1nc(C(=O)NC(C)C)cc2c1[nH]c1ccccc12 | > 50 | > 1.34 | 
25 | 34.2 | CC(=O)c1nc(C(=O)NCc2ccc(C(C)(C)C)cc2)cc2c1[nH]c1ccccc12 | > 50 | > 1.46 | 
26 | 27.7 | CC(=O)c1nc(C(=O)NCc2cccc(O)c2)cc2c1[nH]c1ccccc12 | > 50 | > 1.81 | 
27 | 24.7 | CC(=O)c1nc(C(=O)NCc2ccc(F)cc2)cc2c1[nH]c1ccccc12 | > 50 | > 2.02 | 
28 | 21.2 | O=C(NCCc1c[nH]c2ccccc12)c1cc2c([nH]c3ccccc32)c(C(=O)c2ccccc2)n1 | 31.9 | 1.5 | 
29 | 20.8 | CC(=O)c1nc(C(=O)N(Cc2ccccc2)Cc2ccccc2)cc2c1[nH]c1ccccc12 | > 50 | > 2.4 | 
30 | 19.2 | O=C(NCCc1c[nH]c2ccccc12)c1cc2c([nH]c3ccccc32)c(-c2ccccc2)n1 | > 50 | > 2.6 | 
31 | 16.8 | COc1ccc(CNC(=O)c2cc3c([nH]c4ccccc43)c(C(C)=O)n2)cc1 | > 50 | > 2.97 | 
32 | 16.5 | CC(=O)c1nc(C(=O)NCCCO)cc2c1[nH]c1ccccc12 | 41.2 | 2.5 | 
33 | 16.3 | CC(=O)c1nc(C(=O)NCc2ccc(N)cc2)cc2c1[nH]c1ccccc12 | > 50 | > 3.07 | IC50 [4]: 15.5 µM
34 | 14.9 | CC(=O)c1nc(C(=O)NCc2ccc3[nH]ccc3c2)cc2c1[nH]c1ccccc12 | > 50 | > 3.36 | 
35 | 14.7 | O=C(NCCc1c[nH]c2ccccc12)c1cc2c([nH]c3ccccc32)c(C(=O)c2ccc(Cl)cc2)n1 | > 50 | > 3.4 | 
36 | 14.3 | CC(=O)c1nc(C(=O)NCc2c[nH]c3ccccc23)cc2c1[nH]c1ccccc12 | > 50 | > 3.51 | 
37 | 11.3 | CC(=O)c1nc(C(=O)NCCCN(C)C)cc2c1[nH]c1ccccc12 | > 50 | > 4.41 | 
38 | 11.3 | CC(=O)c1nc(C(=O)NCCc2c(C)[nH]c3ccccc23)cc2c1[nH]c1ccccc12 | 41.9 | 3.71 | 
39 | 10.8 | COc1ccc2[nH]cc(CCNC(=O)c3cc4c([nH]c5ccccc54)c(C(C)=O)n3)c2c1 | 39.3 | 3.62 | 
40 | 10.8 | CC(=O)c1nc(C(=O)Nc2ccc(N)cc2)cc2c1[nH]c1ccccc12 | > 50 | > 4.63 | 
41 | 10.3 | CC(=O)c1nc(C(=O)NCc2ccccc2O)cc2c1[nH]c1ccccc12 | 38.3 | 3.7 | 
42 | 9.52 | CC(=O)c1nc(C(=O)OCCc2c[nH]c3ccccc23)cc2c1[nH]c1ccccc12 | 38.3 | 4.02 | IC50 [4]: 8.48 µM
43 | 8.29 | Cc1ccc(C(=O)c2nc(C(=O)NCCc3c[nH]c4ccccc34)cc3c2[nH]c2ccccc23)cc1 | 41.2 | 4.98 | 
44 | 7.71 | CC(=O)c1nc(C(=O)NCCc2c[nH]c3ccccc23)cc2c1[nH]c1ccccc12 [MARINACARBOLINE D] | 27.2 | 3.53 | IC50 [4]: 8.21 µM
45 | 7.06 | O=C(NCCc1c[nH]c2ccccc12)c1cc2c([nH]c3ccccc32)c(-c2ccc(Br)cc2)n1 | 48.8 | 6.19 | IC50 [4]: 6.81 µM; inhibition [5]: Active
46 | 6.98 | CC(=O)c1nc(C(=O)Nc2ccc3[nH]ccc3c2)cc2c1[nH]c1ccccc12 | 48.2 | 6.91 | 
47 | 6.89 | Cc1ccc(-c2nc(C(=O)NCCc3c[nH]c4ccccc34)cc3c2[nH]c2ccccc23)cc1 | 42 | 6.1 | 
48 | 6.82 | O=C(NCCc1c[nH]c2ccccc12)c1cc2c([nH]c3ccccc32)c(C(=O)c2ccc(O)cc2)n1 | 39.3 | 5.76 | IC50 [4]: 6.62 µM; inhibition [5]: Active
49 | 5.94 | CC(=O)c1nc(C(=O)NCCc2c[nH]c3ccc(Cl)cc23)cc2c1[nH]c1ccccc12 | 36.5 | 6.14 | 
50 | 5.68 | O=C(NCCc1c[nH]c2ccccc12)c1cc2c([nH]c3ccccc32)c(-c2ccc(O)cc2)n1 | 46.3 | 8.15 | 
51 | 3.66 | COc1cc([C@@H]2c3cc4c(cc3[C@@H](O[C@@H]3O[C@@H]5CO[C@@H](C)O[C@H]5[C@H](O)[C@H]3O)[C@H]3COC(=O)[C@H]23)OCO4)cc(OC)c1O [ETOPOSIDE] | 13.5 | 3.68 | 
52 | 3.51 | CC(=O)c1nc(C(=O)NCc2ccc(O)cc2)cc2c1[nH]c1ccccc12 | > 50 | > 14.2 | IC50 [4]: 3.66 µM
